Measured values reported in patent US20150141439A1, “PHARMACEUTICAL COMPOSITION FOR THE PREVENTION OR TREATMENT OF BRAIN TUMOR OR TEMODAL RESISTANT GLIOBLASTOMA MULTIFORM COMPRISING AZATHIOPRINE AS AN ACTIVE INGREDIENT” (KOREA RESEARCH INSTITUTE OF CHEMICAL TECHNOLOGY, priority 2012, published 2015).

Tests used:
[1] = tested on: GBM #4 glioblastoma multiform patient originated cells; assay: Neurosphere formation inhibition, GBM #4; assay type: cell-based, human; set-up: key: S: strong effect; I: intermediate effect; R: rare effect; conditions: GBM #4, type B (classical), Azathioprine 1 μM, duration 9 day
Procedure: (§1) Particularly, to investigate neurosphere formation, glioblastoma multiform cells were cultured for a certain time and the cells were distributed again in culture vessels, followed by additional culture. Then, the number of newly generated neurospheres was measured. First, the glioblastoma multiform patient originated cells were sub-cultured, which were distributed in a 96-well plate (20, 50, and 200 cells in 50 μl of culture medium/well). […] Then, the compound of formula 1 (azathioprine) and the compound of Comparative Example 1 (Temodal) were added to 50 μl of cell culture medium with the same concentrations as the above once a week, which were then cultured for 7˜23 days. When neurosphere was formed at least 50 μm in the control group not treated with the compound, the number of neurospheres in each well was counted to compare the neurosphere formation before and after the treatment of the compound of formula 1 (azathioprine) and the compound of Comparative Example 1 (Temodal).
(§2) The glioblastoma multiform cells used in this experiment were classified into 4 types, which are type A, type B, type C, and type D, according to the gene expression pattern. Methylation of MGMT (O6-me-G methyltransferase), the DNA repair protein, was confirmed in each cell line. […]

[2] = tested on: GBM #5 glioblastoma multiform patient originated cells; assay: Neurosphere formation inhibition, GBM #5; assay type: cell-based, human; set-up: key: S: strong effect; I: intermediate effect; R: rare effect; conditions: GBM #5, type B (classical), Azathioprine 1 μM, duration 21 day
Procedure: as §1, §2

[3] = tested on: GBM #9 glioblastoma multiform patient originated cells; assay: Neurosphere formation inhibition, GBM #9; assay type: cell-based, human; set-up: key: S: strong effect; I: intermediate effect; R: rare effect; conditions: GBM #9, type D (non-classified), Azathioprine 1 μM, duration 21 day
Procedure: as §1, §2

[4] = tested on: MKN45 Human stomach adenocarcinoma; assay: Secondary cytotoxicity test, MKN45; assay type: cell-based; conditions: MKN-45
Procedure: (§3) Particularly, the cell growth inhibition effect was measured by WST-1 cell proliferation assay [http://www.roche-applied-science.com/PROD_INF/MANUALS/CELL_MAN/apoptosis—087—088.pdf]. The compound of formula 1 was loaded in a 384-well cell culture plate. Three types of glioblastoma multiform cell lines [proneural subtype (559T), mesenchymal subtype (592T), and classical subtype (626T)], normal human astrocytes (NHA), a lung cancer cell line (A549), and a glioblastoma multiform cell line (U87MG) were distributed in the plate at the density of 4.5×10^3 cells/well, and the medium was filled up to make 50 μl per well. At this time, the concentration of the solvent DMSO for the compound of formula 1 was no more than 0.2%. After culturing the cells for 72 hours, 5 mg/ml of WST-1 reagent was added by 5 μl per well, followed by reaction for 3˜4 hours. Then OD450 was measured to investigate the effect of the compound of formula 1 on cell proliferation.
(§4) To investigate the cell growth inhibition effect of the compound of formula 1 of the present invention (azathioprine) in many different cell lines, secondary cytotoxicity test was performed with the cell lines listed in Table 5 by the same manner as described in Example 1.

[5] = tested on: CCD986SK Human fibroblast; assay: Secondary cytotoxicity test, CCD986SK; assay type: cell-based; conditions: CCD-986Sk
Procedure: as §3, §4

[6] = tested on: HepG2 Human hepatocarcinoma; assay: Secondary cytotoxicity test, HepG2; assay type: cell-based
Procedure: as §3, §4

[7] = tested on: GBM #7 glioblastoma multiform patient originated cells; assay: Neurosphere formation inhibition, GBM #7; assay type: cell-based, human; set-up: key: S: strong effect; I: intermediate effect; R: rare effect; conditions: GBM #7, type B (classical), Azathioprine 1 μM, duration 23 day
Procedure: Particularly, to investigate neurosphere formation, glioblastoma multiform cells were cultured for a certain time and the cells were distributed again in culture vessels, followed by additional culture. Then, the number of newly generated neurospheres was measured. First, the glioblastoma multiform patient originated cells were sub-cultured, which were distributed in a 96-well plate (20, 50, and 200 cells in 50 μl of culture medium/well). 2, 6, and 20 μM of the compound of formula 1 (azathioprine) and the compound of Comparative Example 1 (Temodal) were treated thereto by 50 μl per well to make the final concentrations of 1, 3, and 10 μM. Then, the compound of formula 1 (azathioprine) and the compound of Comparative Example 1 (Temodal) were added to 50 μl of cell culture medium with the same concentrations as the above once a week, which were then cultured for 7˜23 days. When neurosphere was formed at least 50 μm in the control group not treated with the compound, the number of neurospheres in each well was counted to compare the neurosphere formation before and after the treatment of the compound of formula 1 (azathioprine) and the compound of Comparative Example 1 (Temodal).
The glioblastoma multiform cells used in this experiment were classified into 4 types, which are type A, type B, type C, and type D, according to the gene expression pattern. […]

[8] = tested on: lung cancer cell line (A549); assay: cells; conditions: Homo sapiens, A549, 72 h
Procedure: as §3

[9] = tested on: glioblastoma multiform cell line (U87MG); assay: cells
Procedure: as §3

[10] = tested on: proneural subtype glioblastoma multiform (559T); assay: cells; conditions: Homo sapiens, 72 h
Procedure: as §3

[11] = tested on: mesenchymal subtype glioblastoma multiform (592T); assay: cells; conditions: Homo sapiens, 72 h
Procedure: as §3

[12] = tested on: classical subtype glioblastoma multiform (626T); assay: cells; conditions: Homo sapiens, 72 h
Procedure: as §3

[13] = read-out: Cell Growth Inhibition (% Inhibition)
[14] = Homo sapiens, U-87 MG, 72 h, read-out: Cell Growth Inhibition (% Inhibition)

Cn1cnc([N+](=O)[O-])c1Sc1ncnc2nc[nH]c12 [Azathioprine, 6-(1-methyl-4-nitro-1H-imidazol-5-ylthio)-7H-purine]
inhibition of neurosphere formation [1]: S | inhibition of neurosphere formation [2]: S | inhibition of neurosphere formation [3]: S | IC50 [4]: 1.2 µM | IC50 [5]: > 10 µM | IC50 [6]: > 10 µM | inhibition of neurosphere formation [7]: S | GI50 [8]: > 10 µM | inhibition at 0.032 µM [8, 13]: 6.7% | inhibition at 0.1 µM [8, 13]: 15.3% | inhibition at 0.32 µM [8, 13]: 21.5% | inhibition at 1 µM [8, 13]: 24.2% | inhibition at 3.2 µM [8, 13]: 26% | inhibition at 10 µM [8, 13]: 32% | GI50 ([9]; Homo sapiens, U-87 MG, 72 h): > 10 µM | inhibition at 0.032 µM [9, 14]: 3.2% | inhibition at 0.1 µM [9, 14]: -9.9% | inhibition at 0.32 µM [9, 14]: 10.5% | inhibition at 1 µM [9, 14]: 6.5% | inhibition at 3.2 µM [9, 14]: 3.2% | inhibition at 10 µM [9, 14]: -12.7% | cancer cell growth inhibition ([9]; U87MG, WST-1, up to 10 μM): did not inhibit the cancer cell growth | GI50 [10]: 1.3 µM | inhibition at 0.032 µM [10, 13]: -4.2% | inhibition at 0.1 µM [10, 13]: 2.6% | inhibition at 0.32 µM [10, 13]: 9.7% | inhibition at 1 µM [10, 13]: 35.9% | inhibition at 3.2 µM [10, 13]: 65.8% | inhibition at 10 µM [10, 13]: 78.6% | GI50 [11]: 5.5 µM | inhibition at 0.032 µM [11, 13]: -3.9% | inhibition at 0.1 µM [11, 13]: 2.1% | inhibition at 0.32 µM [11, 13]: 8.3% | inhibition at 1 µM [11, 13]: 22.6% | inhibition at 3.2 µM [11, 13]: 46% | inhibition at 10 µM [11, 13]: 57.2% | GI50 [12]: 3.1 µM | inhibition at 0.032 µM [12, 13]: 20.2% | inhibition at 0.1 µM [12, 13]: 34.9% | inhibition at 0.32 µM [12, 13]: 30% | inhibition at 1 µM [12, 13]: 42.5% | inhibition at 3.2 µM [12, 13]: 61.8% | inhibition at 10 µM [12, 13]: 76.3%
